Measured values: patent US10918713B2, “Epitopes from allergen proteins and methods and uses for immune response modulation” (LA JOLLA INSTITUTE FOR ALLERGY AND IMMUNOLOGY, priority 2012, dated 2021)
“And” between values parts separate entries of the source, which are not always exact repeats. Identical values can stand only once.

Experiments:
Assay type in all cases: cell-based, human
[1] = tested on: PBMC from allergic donors; assay: IL-5 ELISPOT with extract-stimulated short-term lines; conditions: positive donor/peptide response
Protocol: (§1) Spots were counted by computer-assisted image analysis (Zeiss, KS-ELISPOT reader, Munich, Germany).
(§2) Each assay was performed in triplicate. The level of statistical significance was determined with a Student's t-test using the mean of triplicate values of the response against relevant pools or individual peptides versus the response against the DMSO control.

[2] = tested on: PBMC from allergic donors; assay: IFN-γ ELISPOT with extract-stimulated short-term lines; conditions: positive donor/peptide response
Protocol: as §1, §2

[3] = tested on: PBMC from allergic donors; assay: Dual ELISPOT, total IL-5 and IFN-γ response (SFC); conditions: sum of IFNg and IL-5
Protocol: as §1, §2

Row | Compound | Response (SFC/10^6) IL-5 ([1]; one donor per table line) | Response (SFC/10^6) IFNg ([2]; one donor per table line) | Response (SFC/10^6) Total ([3]; one donor per table line) | Response (SFC/10^6) IL-5 ([1]; each table line is one donor) | Response (SFC/10^6) IFNg ([2]; each table line is one donor) | Response (SFC/10^6) Total ([3]; each table line is one donor)
1 | CC[C@H](C)[C@H](NC(=O)CNC(=O)[C@@H](N)CCCNC(=N)N)C(=O)N[C@@H](CCC(=O)O)C(=O)N[C@@H](Cc1ccc(O)cc1)C(=O)N[C@H](C(=O)N[C@@H](CCC(N)=O)C(=O)N[C@@H](Cc1c[nH]cn1)C(=O)N[C@@H](CC(N)=O)C(=O)NCC(=O)N[C@H](C(=O)N[C@H](C(=O)N[C@@H](CCC(N)=O)C(=O)N[C@@H](CCC(=O)O)C(=O)N[C@@H](CO)C(=O)O)C(C)C)C(C)C)[C@@H](C)CC [3324.0831] | 567 SFC/10^6 and 103 SFC/10^6 | 220 SFC/10^6 | 567 SFC/10^6 and 323 SFC/10^6 | – | – | –
2 | CC[C@H](C)[C@H](NC(=O)[C@H](Cc1ccccc1)NC(=O)[C@H](CC(=O)O)NC(=O)[C@@H](NC(=O)[C@@H](NC(=O)CNC(=O)[C@@H](N)CCC(=O)O)[C@@H](C)O)C(C)C)C(=O)N[C@@H](Cc1ccccc1)C(=O)NCC(=O)N[C@@H](CCC(=O)O)C(=O)N[C@@H](C)C(=O)N[C@@H](CCCNC(=N)N)C(=O)N[C@@H](CO)C(=O)N[C@@H](CC(C)C)C(=O)N[C@@H](Cc1ccc(O)cc1)C(=O)O [3324.1590] | – | – | – | 1300 SFC/10^6 and 363 SFC/10^6 | 397 SFC/10^6 | 1697 SFC/10^6 and 363 SFC/10^6
3 | CC[C@H](C)[C@H](N)C(=O)N[C@@H](Cc1ccccc1)C(=O)N[C@@H](CO)C(=O)N[C@@H](CCC(N)=O)C(=O)N[C@@H](CC(N)=O)C(=O)N[C@@H](CCSC)C(=O)N[C@@H](CC(N)=O)C(=O)N[C@H](C(=O)N[C@@H](CCCCN)C(=O)N[C@@H](CC(C)C)C(=O)N[C@@H](CCC(N)=O)C(=O)N[C@@H](CCSC)C(=O)N1CCC[C@H]1C(=O)N[C@@H](CC(C)C)C(=O)N[C@@H](Cc1ccc(O)cc1)C(=O)O)[C@@H](C)CC [3324.0607] | 2607 SFC/10^6 | 70 SFC/10^6 | 2607 SFC/10^6 and 70 SFC/10^6 | – | – | –
4 | CC[C@H](C)[C@H](NC(=O)[C@@H](N)CC(=O)O)C(=O)N[C@@H](Cc1ccc(O)cc1)C(=O)N[C@@H](CC(N)=O)C(=O)N[C@@H](Cc1ccc(O)cc1)C(=O)N[C@@H](CCSC)C(=O)N[C@@H](CCC(=O)O)C(=O)N1CCC[C@H]1C(=O)N[C@@H](Cc1ccc(O)cc1)C(=O)N[C@H](C(=O)N[C@@H](CO)C(=O)N[C@@H](CCCCN)C(=O)N[C@H](C(=O)N[C@@H](CC(=O)O)C(=O)N1CCC[C@H]1C(=O)O)C(C)C)C(C)C [3324.0663] | 302 SFC/10^6 and 107 SFC/10^6 | 73 SFC/10^6 | 73 SFC/10^6 and 302 SFC/10^6 and 107 SFC/10^6 | – | – | –
5 | 3324.0842 (GGAINHLSDLSLDEF) | 603 SFC/10^6 | 170 SFC/10^6 | 773 SFC/10^6 | – | – | –
6 | CC[C@H](C)[C@H](NC(=O)[C@H](CCC(=O)O)NC(=O)[C@H](Cc1c[nH]c2ccccc12)NC(=O)[C@@H](NC(=O)CNC(=O)[C@@H](N)CC(=O)O)C(C)C)C(=O)N[C@@H](CCCCN)C(=O)N[C@@H](CO)C(=O)N[C@@H](CC(=O)O)C(=O)N[C@@H](CCCCN)C(=O)N1CCC[C@H]1C(=O)N[C@@H](CC(C)C)C(=O)N[C@@H](CCCCN)C(=O)NCC(=O)N1CCC[C@H]1C(=O)O [3324.1139] | 83 SFC/10^6 | 103 SFC/10^6 and 83 SFC/10^6 | 103 SFC/10^6 and 167 SFC/10^6 | 577 SFC/10^6 and 287 SFC/10^6 | – | 577 SFC/10^6 and 287 SFC/10^6
7 | 3324.1625 (GFYLQWAVHSFRITN) | – | – | – | 143 SFC/10^6 | 193 SFC/10^6 | 337 SFC/10^6
8 | CC[C@H](C)[C@H](NC(=O)[C@@H]1CCCN1C(=O)[C@H](CC(N)=O)NC(=O)[C@H](C)NC(=O)[C@H](Cc1ccc(O)cc1)NC(=O)[C@@H](N)CCCNC(=N)N)C(=O)N[C@@H](C)C(=O)N[C@@H](Cc1ccccc1)C(=O)N[C@@H](Cc1ccccc1)C(=O)N[C@@H](CCCNC(=N)N)C(=O)N[C@@H](CCCCN)C(=O)N[C@@H](CCC(=O)O)C(=O)N1CCC[C@H]1C(=O)N[C@@H](CC(C)C)C(=O)N[C@@H](CCCCN)C(=O)O [3324.1138] | 1697 SFC/10^6 | 440 SFC/10^6 | 2137 SFC/10^6 | – | – | –
9 | CC[C@H](C)[C@H](N)C(=O)N[C@H](C(=O)N[C@@H](Cc1ccccc1)C(=O)N[C@@H](CO)C(=O)N[C@@H](CCC(N)=O)C(=O)N[C@@H](CC(N)=O)C(=O)N[C@@H](CCSC)C(=O)N[C@@H](CC(N)=O)C(=O)N[C@H](C(=O)N[C@@H](CCCCN)C(=O)N[C@@H](CC(C)C)C(=O)N[C@@H](CCCCN)C(=O)N[C@@H](CCSC)C(=O)N1CCC[C@H]1C(=O)N[C@@H](CC(C)C)C(=O)O)[C@@H](C)CC)[C@@H](C)CC [3324.0618] | 3067 SFC/10^6 | 80 SFC/10^6 and 73 SFC/10^6 | 80 SFC/10^6 and 3067 SFC/10^6 and 73 SFC/10^6 | – | – | –
10 | CC[C@H](C)[C@H](NC(=O)[C@H](CC(N)=O)NC(=O)[C@H](CC(C)C)NC(=O)[C@@H](NC(=O)[C@H](CC(C)C)NC(=O)[C@@H](NC(=O)[C@H](CCCCN)NC(=O)[C@H](C)NC(=O)[C@H](CC(=O)O)NC(=O)[C@@H](N)CO)[C@@H](C)O)C(C)C)C(=O)N[C@@H](CCCCN)C(=O)N[C@@H](Cc1ccc(O)cc1)C(=O)N[C@H](C(=O)N[C@@H](CCCNC(=N)N)C(=O)N1CCC[C@H]1C(=O)O)[C@@H](C)O [3324.1142] | – | – | – | 227 SFC/10^6 and 147 SFC/10^6 and 1547 SFC/10^6 | 150 SFC/10^6 | 227 SFC/10^6 and 147 SFC/10^6 and 1697 SFC/10^6
11 | CC[C@H](C)[C@H](N)C(=O)N[C@@H](C)C(=O)N[C@@H](Cc1ccccc1)C(=O)N[C@@H](Cc1ccccc1)C(=O)N[C@@H](CCCNC(=N)N)C(=O)N[C@@H](CCCCN)C(=O)N[C@@H](CCC(=O)O)C(=O)N1CCC[C@H]1C(=O)N[C@@H](CC(C)C)C(=O)N[C@@H](CCCCN)C(=O)N[C@@H](CCC(=O)O)C(=O)N[C@@H](CS)C(=O)NCC(=O)NCC(=O)N[C@H](C(=O)O)[C@@H](C)CC [3337.0029] | 180 SFC/10^6 | 77 SFC/10^6 | 257 SFC/10^6 | – | – | –
12 | 3337.0008 (WLDAKSTWYGKPTGA) | 57 SFC/10^6 | 140 SFC/10^6 and 283 SFC/10^6 and 163 SFC/10^6 | 140 SFC/10^6 and 57 SFC/10^6 and 283 SFC/10^6 and 163 SFC/10^6 | – | – | –
13 | 3324.0834 (KAFNKSYATFEDEEA) | 703 SFC/10^6 | 1563 SFC/10^6 | 2267 SFC/10^6 | – | – | –
14 | C[C@H](NC(=O)[C@@H](NC(=O)[C@H](C)NC(=O)[C@H](C)NC(=O)[C@H](C)NC(=O)[C@@H]1CCCN1C(=O)[C@@H](NC(=O)[C@H](C)NC(=O)[C@@H](NC(=O)[C@H](C)NC(=O)[C@H](Cc1ccc(O)cc1)NC(=O)[C@H](C)NC(=O)[C@H](C)NC(=O)[C@H](C)NC(=O)[C@@H]1CCCN1)[C@@H](C)O)[C@@H](C)O)[C@@H](C)O)C(=O)O [3324.1184] | – | – | – | 1637 SFC/10^6 | 58 SFC/10^6 | 58 SFC/10^6 and 1637 SFC/10^6
15 | CC[C@H](C)[C@H](NC(=O)[C@H](C)NC(=O)[C@H](CCCCN)NC(=O)[C@H](CC(N)=O)NC(=O)[C@H](Cc1ccccc1)NC(=O)[C@H](C)NC(=O)CNC(=O)[C@H](CCC(=O)O)NC(=O)[C@H](Cc1ccccc1)NC(=O)[C@@H](NC(=O)[C@@H](NC(=O)[C@H](Cc1ccccc1)NC(=O)[C@H](CCCCN)NC(=O)[C@H](CC(=O)O)NC(=O)[C@@H](N)CC(N)=O)[C@@H](C)O)C(C)C)C(=O)O [3324.1442] | – | – | – | 400 SFC/10^6 | 93 SFC/10^6 | 400 SFC/10^6 and 93 SFC/10^6
16 | CC(C)C[C@H](NC(=O)[C@H](Cc1ccc(O)cc1)NC(=O)[C@H](C)NC(=O)[C@H](CCC(=O)O)NC(=O)[C@@H](NC(=O)[C@H](C)NC(=O)[C@H](CCCCN)NC(=O)[C@H](Cc1ccccc1)NC(=O)[C@@H](NC(=O)[C@H](CCC(=O)O)NC(=O)[C@H](CO)NC(=O)[C@H](C)N)C(C)C)C(C)C)C(=O)N[C@H](C(=O)N[C@@H](C)C(=O)N[C@@H](Cc1c[nH]cn1)C(=O)O)C(C)C [3324.1584] | 207 SFC/10^6 and 890 SFC/10^6 and 97 SFC/10^6 | 143 SFC/10^6 | 207 SFC/10^6 and 1033 SFC/10^6 and 97 SFC/10^6 | – | – | –
17 | CC[C@H](C)[C@H](NC(=O)[C@H](Cc1ccc(O)cc1)NC(=O)[C@H](CCC(=O)O)NC(=O)[C@H](CC(C)C)NC(=O)[C@H](CO)NC(=O)[C@@H](NC(=O)[C@@H](N)Cc1ccccc1)[C@@H](C)O)C(=O)N[C@@H](CCC(=O)O)C(=O)N[C@@H](C)C(=O)N[C@@H](C)C(=O)N[C@@H](CCCCN)C(=O)N[C@@H](Cc1c[nH]c2ccccc12)C(=O)N[C@@H](CC(C)C)C(=O)N[C@@H](CC(C)C)C(=O)N1CCC[C@H]1C(=O)O [3324.1589] | – | – | – | 1433 SFC/10^6 and 203 SFC/10^6 | 310 SFC/10^6 | 1743 SFC/10^6 and 203 SFC/10^6
18 | CC[C@H](C)[C@H](NC(=O)[C@H](CC(N)=O)NC(=O)[C@@H](NC(=O)[C@H](CC(=O)O)NC(=O)[C@@H](N)CCC(=O)O)[C@@H](C)O)C(=O)N[C@@H](Cc1ccc(O)cc1)C(=O)N[C@@H](CC(N)=O)C(=O)N[C@@H](CO)C(=O)N[C@@H](CC(N)=O)C(=O)N[C@@H](CCC(=O)O)C(=O)N[C@@H](C)C(=O)N[C@@H](Cc1ccccc1)C(=O)N[C@@H](CCCCN)C(=O)N[C@H](C(=O)N[C@@H](CCC(=O)O)C(=O)O)C(C)C [3324.0606] | 427 SFC/10^6 | 240 SFC/10^6 and 73 SFC/10^6 | 427 SFC/10^6 and 240 SFC/10^6 and 73 SFC/10^6 | – | – | –
